Data from patent publication US11866430B2, “Naphthyridinone compounds useful as T cell activators” (priority 2018, dated 2024).
pIC50: −log10 of the molar value. Like-named read-outs stand apart in the source and are kept apart here.

Assays:
human DGKζ [1] = target: T1, human DGKζ (Homo sapiens (Human), UniProt Q13574); assay: DGKζ assay (detergent/lipid micelle substrate); assay type: biochemical
Method in brief: (§1)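 Enzymes were baculovirus/Sf9 full-length human DGKα or DGKζ with His tag. The substrate was PS/DAG in octyl glucoside micelles, in MOPS pH 7.5 buffer with NaCl, MgCl2, CaCl2 and DTT.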

human DGKζ [2] = target: T1, human DGKζ; assay: DGKζ LIPGLO assay (extruded liposome substrate); assay type: biochemical
Method in brief: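 Sf9-derived DGKζ was premixed 10 min with PC/DAG/PS liposomes (100 nm extruded) in MOPS pH 7.5 buffer containing NaCl, MgCl2, CaCl2 and DTT.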

human DGKα [3] = target: T2, human DGKα (Homo sapiens (Human), UniProt P23743); assay: DGKα LIPGLO assay (extruded liposome substrate); assay type: biochemical
Method in brief: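 Human full-length DGKα, His-tagged and produced in Sf9 cells, assayed at 20 nM (4× stock) on extruded liposomes of PS, 0.25 mM DAG and 2.75 mM PC, preincubated 10 min. Reaction started with 300 μM ATP (stock) and ran 1 h in MOPS pH 7.5/MgCl2/CaCl2/DTT buffer.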

[4] = system: pre-activated CD4 T cells and Raji cells; assay: Raji CD4 T Cell IL2 Assay; assay type: cell-based
human DGKα [5] = target: T2, human DGKα; assay: biochemical; settings: detergent/lipid micelle substrate; read-out: DGKα IC50
Method in brief: as §1

[6] = detergent/lipid micelle substrate; read-out: DGKζ IC50
[7] = extruded liposome substrate, read-out: DGKζ LIPGLO IC50

T1 sequence (Q13574 other isoform, or with tags, fused parts or gaps): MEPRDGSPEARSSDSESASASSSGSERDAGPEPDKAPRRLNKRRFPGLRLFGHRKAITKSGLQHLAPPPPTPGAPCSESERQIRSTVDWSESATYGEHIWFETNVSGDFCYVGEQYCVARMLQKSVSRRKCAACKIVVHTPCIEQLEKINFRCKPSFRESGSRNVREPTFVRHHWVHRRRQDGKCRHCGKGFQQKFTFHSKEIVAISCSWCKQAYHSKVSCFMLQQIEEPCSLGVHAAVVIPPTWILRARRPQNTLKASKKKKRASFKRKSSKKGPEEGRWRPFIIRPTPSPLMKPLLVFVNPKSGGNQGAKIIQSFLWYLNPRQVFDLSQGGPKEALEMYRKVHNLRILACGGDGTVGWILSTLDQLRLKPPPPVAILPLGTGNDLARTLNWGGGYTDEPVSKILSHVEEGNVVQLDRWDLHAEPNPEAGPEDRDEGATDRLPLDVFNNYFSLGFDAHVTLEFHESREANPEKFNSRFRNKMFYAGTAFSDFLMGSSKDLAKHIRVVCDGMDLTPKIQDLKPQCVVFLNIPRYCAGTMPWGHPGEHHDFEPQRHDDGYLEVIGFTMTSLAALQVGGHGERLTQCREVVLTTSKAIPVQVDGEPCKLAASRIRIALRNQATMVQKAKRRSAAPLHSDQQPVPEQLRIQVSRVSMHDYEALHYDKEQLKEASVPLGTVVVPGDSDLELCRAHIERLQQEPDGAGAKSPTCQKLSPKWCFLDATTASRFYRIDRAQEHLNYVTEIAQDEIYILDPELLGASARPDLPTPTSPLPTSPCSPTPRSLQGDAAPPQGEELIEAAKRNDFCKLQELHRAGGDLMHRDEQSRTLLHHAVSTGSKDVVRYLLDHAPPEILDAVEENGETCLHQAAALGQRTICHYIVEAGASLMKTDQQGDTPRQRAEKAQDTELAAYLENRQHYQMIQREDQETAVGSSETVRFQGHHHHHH
T2 sequence (P23743 other isoform, or with tags, fused parts or gaps): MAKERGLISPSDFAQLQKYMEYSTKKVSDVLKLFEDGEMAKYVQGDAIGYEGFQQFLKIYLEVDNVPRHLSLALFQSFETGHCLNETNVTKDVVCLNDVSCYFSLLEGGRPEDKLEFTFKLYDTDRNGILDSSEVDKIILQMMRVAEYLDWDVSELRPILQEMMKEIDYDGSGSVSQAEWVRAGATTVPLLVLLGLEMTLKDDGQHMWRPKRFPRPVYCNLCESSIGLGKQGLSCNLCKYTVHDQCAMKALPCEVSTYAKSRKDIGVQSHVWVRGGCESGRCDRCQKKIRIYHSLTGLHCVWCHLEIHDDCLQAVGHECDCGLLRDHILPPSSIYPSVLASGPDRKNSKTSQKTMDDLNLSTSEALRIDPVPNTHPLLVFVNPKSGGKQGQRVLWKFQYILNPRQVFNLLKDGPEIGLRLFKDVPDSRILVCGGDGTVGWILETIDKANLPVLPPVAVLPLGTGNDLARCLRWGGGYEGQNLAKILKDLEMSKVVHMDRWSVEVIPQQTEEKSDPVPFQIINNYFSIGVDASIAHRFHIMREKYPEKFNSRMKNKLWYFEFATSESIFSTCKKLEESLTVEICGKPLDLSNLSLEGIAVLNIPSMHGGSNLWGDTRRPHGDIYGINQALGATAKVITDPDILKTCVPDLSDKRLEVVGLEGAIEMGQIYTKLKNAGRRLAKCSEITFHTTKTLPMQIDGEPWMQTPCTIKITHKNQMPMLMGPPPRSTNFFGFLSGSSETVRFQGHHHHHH

Structure (SMILES)	pIC50 (human DGKζ [1]; [6])	pIC50 (human DGKζ [2]; [7])	pIC50 (human DGKα [3])	pIC50 ([4]; Homo sapiens, Raji)	pIC50 (human DGKα [5])	pIC50 [4]	pIC50 (human DGKζ [1]; read-out: DGKζ IC50; detergent/lipid micelle substrate)	pIC50 (human DGKζ [2]; DGKζ LIPGLO IC50, extruded liposome substrate)
C#CCn1c(=O)c(C#N)c(N2CCN(Cc3ccc(C)cc3O)CC2)c2nc(Br)ccc21 [Example 66, 6-bromo-4-(4-(2-hydroxy-4-methylbenzyl)piperazin-1-yl)-2-oxo-1-(prop-2-yn-1-yl)-1,2-dihydro-1,5-naphthyridine-3-carbonitrile]	4.89	5.77	6.64	7.32	7.08			
CCC(c1ccc(F)cc1)N1CCN(c2c(C#N)c(=O)n(CC#N)c3ccc(Br)nc23)CC1 (stereo not drawn) [Example 155, 6-bromo-1-(cyanomethyl)-4-(4-(1-(4-fluorophenyl)propyl)piperazin-1-yl)-2-oxo-1,2-dihydro-1,5-naphthyridine-3-carbonitrile]	3.64	4.20	4.15	5.80	4.62			
Cn1c(=O)c(C#N)c(N2CCN(Cc3ccccc3Cl)CC2)c2nc(Cl)ccc21 [Example 272, 6-chloro-4-{4-[(2-chlorophenyl)methyl]piperazin-1-yl}-1-methyl-2-oxo-1,2-dihydro-1,5-naphthyridine-3-carbonitrile]	< 3.62	5.00	5.64	7.19	5.82			
Cc1cccc(O)c1CN1CCN(c2c(C#N)c(=O)n(C)c3ccc(Br)nc23)CC1 [Example 259, 6-bromo-4-{4-[(2-hydroxy-6-methylphenyl)methyl]piperazin-yl}-1-methyl-2-oxo-1,2-dihydro-1,5-naphthyridine-3-carbonitrile]	4.26	5.40	6.31	7.80	6.38			
C#CCn1c(=O)c([N+](=O)[O-])c(N2CCN(C(c3ccc(F)cc3)c3ccc(F)cc3OC)CC2)c2nc(C#N)ccc21 (single isomer, unassigned) [Example 128, 8-(4-((4-fluoro-2-methoxyphenyl)(4-fluorophenyl)methyl)piperazin-1-yl)-7-nitro-6-oxo-5-(prop-2-yn-1-yl)-5,6-dihydro-1,5-naphthyridine-2-carbonitrile]	5.82	7.32	4.74		4.68	7.00		
CCn1ccc2c(CN3CCN(c4c([N+](=O)[O-])c(=O)n(C)c5ccc(Br)nc45)CC3)cccc21 [Example 54, 6-bromo-4-(4-((1-ethyl-H-indol-4-yl)methyl)piperazin-1-yl)-1-methyl-3-nitro-1,5-naphthyridin-2(1H)-one]	5.14	5.89	5.51	7.20	6.09			
COc1ccc(O)c(CN2CCN(c3c(C#N)c(=O)n(C)c4ccc(Cl)nc34)CC2)c1 [Example 305, 6-chloro-4-{4-[(2-hydroxy-5-methoxyphenyl)methyl]piperazin-1-yl}-1-methyl-2-oxo-1,2-dihydro-1,5-naphthyridine-3-carbonitrile]	4.21	5.12	6.31	6.68	6.89			
Cc1cccc(O)c1CN1CCN(c2c(C#N)c(=O)n(C)c3ccc(Cl)nc23)CC1 [Example 292, 6-chloro-4-{4-[(2-hydroxy-6-methylphenyl)methyl]piperazin-1-yl}-1-methyl-2-oxo-1,2-dihydro-1,5-naphthyridine-3-carbonitrile]	4.60	5.62	6.32	6.96	6.57			
Cc1cccc(CN2CCN(c3c(C#N)c(=O)n(C)c4ccc(Cl)nc34)CC2)c1F [Example 281, 6-chloro-4-{4-[(2-fluoro-3-methylphenyl)methyl]piperazin-1-yl}-1-methyl-2-oxo-1,2-dihydro-1,5-naphthyridine-3-carbonitrile]	4.31	5.00	5.70	7.03	6.41			
CC(c1ccc(F)cc1)N1CCN(c2c(C#N)c(=O)n(CC3CC3)c3ccc(Br)nc23)CC1 (single isomer, unassigned) [Example 164, 6-bromo-1-(cyclopropylmethyl)-4-(4-(1-(4-fluorophenyl)ethyl)piperazin-1-yl)-2-oxo-1,2-dihydro-1,5-naphthyridine-3-carbonitrile]			4.09		< 3.62	5.59	< 3.62	4.23
Cn1c(=O)c(C#N)c(N2CCN(Cc3ccc(O)c(F)c3)CC2)c2nc(Cl)ccc21 [Example 357, 6-chloro-4-{4-[(3-fluoro-4-hydroxyphenyl)methyl]piperazin-1-yl}-1-methyl-2-oxo-1,2-dihydro-1,5-naphthyridine-3-carbonitrile]	< 3.62	4.33	7.07	5.30	7.55			
C#CCn1c(=O)c(C#N)c(N2CCN(Cc3ccccc3O)CC2)c2nc(Br)ccc21 [Example 65, 6-bromo-4-(4-(2-hydroxybenzyl)piperazin-1-yl)-2-oxo-1-(prop-2-yn-1-yl)-1,2-dihydro-1,5-naphthyridine-3-carbonitrile]	4.70	5.43	6.29	8.26	6.54			
Cc1ccc2c(n1)c(N1CCN(C(c3ccc(F)cc3)c3ccc(F)cc3)CC1)c(Br)c(=O)n2C [Example 239, 4-(4-(bis(4-fluorophenyl)methyl)piperazin-1-yl)-3-bromo-1,6-dimethyl-1,5-naphthyridin-2(1H)-one]	< 3.62	4.29	5.00	5.44	4.96			
Cn1c(=O)c(C#N)c(N2CCN(Cc3ccc(Cl)cc3O)CC2)c2nc(C#N)ccc21 [Example 269, 8-{4-[(4-chloro-2-hydroxyphenyl)methyl]piperazin-1-yl}-5-methyl-6-oxo-5,6-dihydro-1,5-naphthyridine-2,7-dicarbonitrile]	4.59	5.55	6.68	7.24	7.28			
Cn1c(=O)c(C#N)c(N2CCN(C(c3ccc(F)cc3)c3ccc(F)cc3)CC2)c2nc(Cl)ccc21 [Example 218, 4-(4-(bis(4-fluorophenyl)methyl)piperazin-1-yl)-6-chloro-1-methyl-2-oxo-1,2-dihydro-1,5-naphthyridine-3-carbonitrile]	< 4.09	5.29	5.82	7.03	6.16			
Cn1c(=O)c(C#N)c(N2CCN(Cc3cccc4ccccc34)CC2)c2nc(Cl)ccc21 [Example 221, 6-chloro-1-methyl-4-(4-(naphthalen-1-ylmethyl)piperazin-1-yl)-2-oxo-1,2-dihydro-1,5-naphthyridine-3-carbonitrile]	< 3.62	4.74	5.47	6.48	6.13			
Cn1c(=O)c(C#N)c(N2CCN(Cc3ccc(Cl)cc3O)CC2)c2nc(Cl)ccc21 [Example 288, 6-chloro-4-{4-[(4-chloro-2-hydroxyphenyl)methyl]piperazin-1-yl}-methyl-2-oxo-1,2-dihydro-1,5-naphthyridine-3-carbonitrile]	< 3.62	5.64	7.48	7.00	7.43			
COc1c(F)cccc1CN1CCN(c2c(C#N)c(=O)n(C)c3ccc(Cl)nc23)CC1 [Example 274, 6-chloro-4-{4-[(3-fluoro-2-methoxyphenyl)methyl]piperazin-1-yl}-1-methyl-2-oxo-1,2-dihydro-1,5-naphthyridine-3-carbonitrile]	4.52	5.27	5.80	7.14	6.17			
Cc1ccc(CN2CCN(c3c(C#N)c(=O)n(C)c4ccc(Cl)nc34)CC2)c(O)c1 [Example 273, 6-chloro-4-{4-[(2-hydroxy-4-methylphenyl)methyl]piperazin-1-yl}-1-methyl-2-oxo-1,2-dihydro-1,5-naphthyridine-3-carbonitrile]	4.16	5.11	7.09	7.19	7.74			
CC(c1ccc(F)cc1)N1CCN(c2c([N+](=O)[O-])c(=O)n(C)c3ccc(C#N)nc23)CC1 (single isomer, unassigned) [Example 45, 8-(4-(1-(4-fluorophenyl)ethyl)piperazin-1-yl)-5-methyl-7-nitro-6-oxo-5,6-dihydro-1,5-naphthyridine-2-carbonitrile]	4.44	5.17	6.41	7.21	7.00			
Cn1c(=O)c(C#N)c(N2CCN(Cc3cccc(F)c3O)CC2)c2nc(Br)ccc21 [Example 304, 6-bromo-4-{4-[(3-fluoro-2-hydroxyphenyl)methyl]piperazin-1-yl}-1-methyl-2-oxo-1,2-dihydro-1,5-naphthyridine-3-carbonitrile]	4.17	5.24	6.21	6.72	6.48			
